Results as given in ChEMBL document CHEMBL4373746, “Structural attributes influencing unbound tissue distribution” (Eur J Med Chem, 2020).

Key:
[1] = Fraction unbound in Wistar Han rat plasma at 2 uM incubated for 6 hrs by equilibrium dialysis method
[2] = Fraction unbound in Wistar Han rat white adipose tissue at 2 uM incubated for 6 hrs by equilibrium dialysis method
[3] = Fraction unbound in Wistar Han rat brain at 2 uM incubated for 6 hrs by equilibrium dialysis method
[4] = Fraction unbound in Wistar Han rat heart at 2 uM incubated for 6 hrs by equilibrium dialysis method
[5] = Fraction unbound in Wistar Han rat liver at 2 uM incubated for 6 hrs by equilibrium dialysis method
[6] = Fraction unbound in Wistar Han rat skeletal muscle at 2 uM incubated for 6 hrs by equilibrium dialysis method
[7] = Total plasma concentration in Wistar Han rat at 1 to 2 mg/kg, iv infused for 10 to 20 hrs by LC-MS/MS analysis; details: in vivo
[8] = Drug concentration in total white adipose tissue in Wistar Han rat at 1 to 2 mg/kg, iv infused for 10 to 20 hrs by LC-MS/MS analysis; details: in vivo
[9] = Drug concentration in total brain in Wistar Han rat at 1 to 2 mg/kg, iv infused for 10 to 20 hrs by LC-MS/MS analysis; details: in vivo
[10] = Drug concentration in total heart in Wistar Han rat at 1 to 2 mg/kg, iv infused for 10 to 20 hrs by LC-MS/MS analysis; details: in vivo
[11] = Drug concentration in total liver in Wistar Han rat at 1 to 2 mg/kg, iv infused for 10 to 20 hrs by LC-MS/MS analysis; details: in vivo
[12] = Drug concentration in total skeletal muscle in Wistar Han rat at 1 to 2 mg/kg, iv infused for 10 to 20 hrs by LC-MS/MS analysis; details: in vivo
[13] = Unbound tissue partition coefficient, ratio of drug level in heart to plasma in Wistar Han rat at 1 to 2 mg/kg, iv infused for 10 to 20 hrs by LC-MS/MS analysis
[14] = Unbound tissue partition coefficient, ratio of drug level in brain to plasma in Wistar Han rat at 1 to 2 mg/kg, iv infused for 10 to 20 hrs by LC-MS/MS analysis
[15] = Unbound tissue partition coefficient, ratio of drug level in adipose to plasma in Wistar Han rat at 1 to 2 mg/kg, iv infused for 10 to 20 hrs by LC-MS/MS analysis
[16] = Unbound tissue partition coefficient, ratio of drug level in liver to plasma in Wistar Han rat at 1 to 2 mg/kg, iv infused for 10 to 20 hrs by LC-MS/MS analysis
[17] = Unbound tissue partition coefficient, ratio of drug level in skeletal muscle to plasma in Wistar Han rat at 1 to 2 mg/kg, iv infused for 10 to 20 hrs by LC-MS/MS analysis
[18] = Unbound tissue partition coefficient, ratio of drug level in brain to plasma in mouse administered as single dose; assay type: ADME; details: read-out: K(p,uu,brain)
[19] = Apparent permeability of the compound across dog RRCK cells by MDCK-LE assay

Row | Cp [7] [ng/mL] | Ct [8] [ng/mL] | Ct [9] [ng/mL] | Ct [10] [ng/mL] | Ct [11] [ng/mL] | Ct [12] [ng/mL] | Kp uu [18] | Papp [19] [×10⁻⁶ cm/s] | Structure (SMILES) | fraction unbound at 6 h, 2 µM [1] | fraction unbound at 6 h, 2 µM [2] | fraction unbound at 6 h, 2 µM [3] | fraction unbound at 6 h, 2 µM [4] | fraction unbound at 6 h, 2 µM [5] | fraction unbound at 6 h, 2 µM [6] | Kp uu ([13]; heart/plasma) | Kp uu ([14]; brain/plasma) | Kp uu ([15]; adipose/plasma) | Kp uu ([16]; liver/plasma) | Kp uu ([17]; skeletal muscle/plasma) | also measured
1 | 14 | 5.6 | 2.9 | 56 | 32 | 52 | 0.065 | 22 | CN1CC[C@H](c2c(O)cc(O)c3c(=O)cc(-c4ccccc4Cl)oc23)[C@H](O)C1 [ALVOCIDIB] | 0.147 | 1 | 0.0442 | 0.0624 | 0.021 | 0.033 | 1.7 | 0.06 | 2.7 | 0.33 | 0.86 | 
2 | 40 | 33 | 11 | 180 | 640 | 100 | 0.059 | 26 | COc1cc2nc(N3CCN(C(=O)c4ccco4)CC3)nc(N)c2cc1OC [PRAZOSIN] |  |  |  |  |  |  |  |  |  |  |  | Kp uu ([13]; other tissue): 2.4; Kp uu ([14]; brain): 0.11; Kp uu ([15]; other tissue): 1.2; Kp uu ([16]; other tissue): 2.8; Kp uu ([17]; other tissue): 0.68

Row | Structure (SMILES) | Cp [7] [ng/mL] | Ct [8] [ng/mL] | Ct [9] [ng/mL] | Ct [10] [ng/mL] | Ct [11] [ng/mL] | Ct [12] [ng/mL] | Kp uu [18] | Papp [19] [×10⁻⁶ cm/s] | fraction unbound at 6 h, 2 µM [1] | fraction unbound at 6 h, 2 µM [2] | fraction unbound at 6 h, 2 µM [3] | fraction unbound at 6 h, 2 µM [4] | fraction unbound at 6 h, 2 µM [5] | fraction unbound at 6 h, 2 µM [6] | Kp uu ([13]; heart/plasma) | Kp uu ([14]; brain/plasma) | Kp uu ([15]; adipose/plasma) | Kp uu ([16]; liver/plasma) | Kp uu ([17]; skeletal muscle/plasma) | also measured
3 | CN(C)C(=O)C(CCN1CCC(O)(c2ccc(Cl)cc2)CC1)(c1ccccc1)c1ccccc1 [LOPERAMIDE] | 74 | 130 | 1.3 | 390 | 590 | 170 | 0.059 | 2.7 | 0.0462 | 0.00264 | 0.00591 | 0.00677 | 0.000644 | 0.0022 | 0.79 | 0.002 | 0.1 | 0.11 | 0.11 | 
